The test system of data set [1] is bacteria. Description: Non-food contact sanitizing test, summary (organism not named). It counts as cell-based. The note with it: Table 13; composition including the named antimicrobial agent. How it is done: The composition produced greater than 3 log10 reduction of bacteria within a 5 minute contact time.
A summary of sanitizing efficacy in a non-food contact sanitizing test is shown below in Table 11 below. All testing was performed in 500 ppm synthetic hard water with a five minute exposure time. Microbiological testing was performed according to known methods, certain of which included EPA efficacy data requirements from DIS/TSS-10.
(§1) A summary of stability and sanitizing efficacy for these compositions including an amine antimicrobial agent is shown below in Table 13. This table also includes, for comparison, results for compositions including other types of antimicrobial agents.

Data set [2] in a line: Physical stability of compositions. The class given is physicochemical.
Source text: as §1

For data set [3], the system named is lipase. Description: Enzyme stability testing (Lipolase activity). It counts as biochemical. As to conditions: Table 13; composition including the named antimicrobial agent. As to the method: The pH of Formula 3 was lowered to 7. Formulas 4 and 5 maintained enzyme stability at 40 C for at least 30 days. Formula 3 maintained enzyme stability at 40 C for 30 days, but dropped thereafter. Enzyme stability testing was performed according to the manufacturers specifications (e.g., Novozymes LUNA #2000-10340-01 “Manual Procedure for Determination of Lipolase Activity in Enzyme Preparations and Detergents”. )

[4] abbreviates: Table 13, composition including the named antimicrobial agent.

Like-named read-outs stand apart in the source and are kept apart here.

Turning to `CCCCCCCCCC[N+](C)(C)CCCCCCCCCC.[Cl-]` [Bardac 2250, didecyl dimethyl ammonium chloride], the “Antimicrobial Activity” value in data set [1] is recorded as 3 log reduction.
In the case of polyhexymethylene biguanide [Vantocil], the “Physical Stability” value in data set [2] (setting [4]) is given as “yes”.
As for “isotridecyloxypropyl-1,3-diaminopropane [DA-17]”, the “Antimicrobial Activity” value in data set [1] turned out to be 4 log reduction. Further, in data set [2], the “Physical Stability” value is listed as “yes”. In addition, the “Enzyme Stability” value in data set [3] is on record as “yes”.
Consider `Oc1cccc(O)c1` [Resorcinol, 1,3-benzenediol, reference compound], for which, in data set [2] (setting [4]), the “Physical Stability” value is “yes”.
On to `CCCCCCCCCCCCN(CCCN)CCCN` [Lonzabac 12.30, bis (3-aminopropyl)dodecylamine], for which, in data set [1], the “Antimicrobial Activity” value is 4.5 log reduction. Moreover, in data set [2] (setting [4]), the “Physical Stability” value is “yes”. In addition, the “Enzyme Stability” value in data set [3] is “yes”.
Consider linear alkyloxypropyl amine [PA-19], for which the “Antimicrobial Activity” value in data set [1] worked out at 4 log reduction. The “Physical Stability” value in data set [2] (setting [4]) is recorded as “yes”. Also, in data set [3], the “Enzyme Stability” value was “yes”.
With `Cc1cc(O)cc(C)c1Cl` [PCMX, Chloroxylenol, reference compound], in data set [2] (setting [4]), the “Physical Stability” value is given as “yes”.
For “Dodecyl/tetradecyloxypropyl-1,3-diaminopropane [DA 1618]”, the “Antimicrobial Activity” value in data set [1] came to 4.8 log reduction. The “Physical Stability” value in data set [2] (setting [4]) is reported as “yes”. The “Enzyme Stability” value in data set [3] is reported as “yes”.
Turning to `O=C([O-])CNCO.[Na+]` [Integra 44, Hydroxymethylglycinate], in data set [1], the “Antimicrobial Activity” value is on record as “none”. The “Physical Stability” value in data set [2] (setting [4]) was “yes”.
On to cocodiaminopropane [Duomeen CD], for which, in data set [1], the “Antimicrobial Activity” value is 2.5 log reduction. Besides, the “Physical Stability” value in data set [2] (setting [4]) is given as “yes”. In addition, the “Enzyme Stability” value in data set [3] is “yes”.

The values are drawn from patent US8211849B2, “Stable antimicrobial compositions including spore, bacteria, fungi and/or enzyme” (priority 2005, dated 2012).
